Source: publication PMC4047407 (The Journal of Biological Chemistry, 2014)
Where a SMILES comes first, the peptide text is derived from it. Bridges are numbered along the chain shown (N, C = ends).

Experiments:
[1] = target: T1, M. sexta V-ATPase (Manduca sexta, UniProt P31403); experiment: V-ATPase assay, detection of released phosphate, purified V1Vo holoenzyme; format: biochemical; settings: Fig. 5, read-out: apparent Ki, inhibition of M. sexta V-ATPase
T1 construct: The M. sexta V1Vo holoenzyme was extracted and purified as described previously; from tissue
T1 sequence (P31403 whole entry): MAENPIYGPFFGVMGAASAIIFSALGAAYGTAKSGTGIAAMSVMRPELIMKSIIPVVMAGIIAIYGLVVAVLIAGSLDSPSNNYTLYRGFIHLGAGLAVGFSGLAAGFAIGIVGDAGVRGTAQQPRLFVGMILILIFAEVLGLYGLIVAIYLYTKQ
Method: (§1) S. oryzae strains WAA42 and ISOR3 were reared according to Louis et al. ([25]). […] PA1b labeling using ^125I and binding assays using the ^125I toxin were performed according to Ref. [22], and binding data were analyzed using the SIMFIT software. Fifth instar larvae of M. sexta (Lepidoptera, Sphingidae), weighing 6–8 g, were reared under long day conditions (16 h of light) at 27 °C using the gypsy moth diet (MP Biomedicals).
(§2) V-ATPase assays based on the detection of released phosphate using the M. sexta V-ATPase or yeast vacuolar membranes were carried out as reported previously ([23], [28], [29]).
(§3) FIGURE 5. Inhibition of yeast V-ATPase activity. […] For comparison, inhibition of the purified V1Vo holoenzyme of M. sexta (squares) by PA1b is included.

[2] = test system: crude membrane extract of S. oryzae (PA1b binding site); design: species or system Sitophilus oryzae; settings: WAA42 membrane extracts; bafilomycin up to 10 μM; data not shown
[3] = target: V-ATPase from wild type S. cerevisiae strain BMA64-1B (Saccharomyces cerevisiae, UniProt P23968+P25515+P32842); experiment: V-ATPase assay on yeast vacuolar membranes, wild type strain; format: biochemical; settings: Fig. 5, read-out: Ki, inhibition of V-ATPase activity
Method: as §2, §3

[4] = test system: S. oryzae strain WAA42; experiment: Weevil toxicity bioassay, inhibitor in the food, PA1b-sensitive strain; format: in vivo, Sitophilus oryzae; settings: 30 weevils, artificial diet over 14 days
Method: as §1
(§4) FIGURE 6. […] 30 rice weevils (S. oryzae) were fed on artificial diet incorporating each tested compound over 14 days. The weevil strains were WAA42 (PA1b-sensitive strain: open symbols) and ISOR3 (PA1b-resistant strain: filled symbols). […] Open diamonds/dashed line, control for artificial diet with bafilomycin solvent.

[5] = test system: S. oryzae strain ISOR3; experiment: Weevil toxicity bioassay, inhibitor in the food, PA1b-resistant strain; format: in vivo, Sitophilus oryzae; settings: 30 weevils; for Mortality: 14 days
Method: as §1, §4

Q: Which Ki [1] does the source give for `CC[C@H](C)[C@@H]1NC(=O)[C@H](C(C)C)NC(=O)[C@H](CC(C)C)NC(=O)CNC(=O)[C@H](C(C)C)NC(=O)[C@@H]2CCCN2C(=O)[C@H]([C@@H](C)CC)NC(=O)[C@@H]2CSSC[C@@H]3NC(=O)[C@H](C(C)C)NC(=O)CNC(=O)[C@H](CC(N)=O)NC(=O)[C@@H](NC(=O)[C@H](CO)NC(=O)[C@H](C)N)CSSC[C@H](NC(=O)[C@H](C)NC(=O)[C@H](CO)NC(=O)[C@H]([C@@H](C)O)NC(=O)CNC(=O)[C@H](CSSC[C@@H](C(=O)N[C@@H](CCCNC(=N)N)C(=O)N[C@@H](CC(N)=O)C(=O)N4CCC[C@H]4C(=O)N[C@@H](CO)C(=O)NCC(=O)O)NC(=O)[C@H](Cc4ccc(O)cc4)NC(=O)CNC1=O)NC(=O)[C@@H]1CCCN1C(=O)[C@@H]1CCCN1C(=O)[C@H](CCSC)NC(=O)[C@H](CCC(=O)O)NC(=O)[C@H](Cc1ccccc1)NC(=O)[C@@H]1CCCN1C(=O)[C@H](CO)NC3=O)C(=O)N[C@@H](CCCNC(=N)N)C(=O)N2` [PA1b, pea albumin 1 subunit b] (H-ASCNGVCSPFEMPPCGTSACRCIPVGLVIGYCRNPSG-OH; disulfide 3-20, 7-22, 15-32) here?
A: ~91 nM

Q: Which results are given for `CO/C1=C\C(C)=C\[C@@H](C)[C@@H](O)[C@@H](C)C/C(C)=C/C=C/[C@H](OC)[C@@H]([C@@H](C)[C@@H](O)[C@H](C)[C@@]2(O)C[C@@H](O)[C@H](C)[C@@H](C(C)C)O2)OC1=O` [bafilomycin, bafilomycin A1]?
A: Inhibition of binding of radiolabeled PA1b by bafilomycin [2]: unable to inhibit; Ki [3]: ~2.4 nM; TL50 ([4]; bafilomycin 0.36 mg/g of food): 12.6 ± 2.3 days; TL50 ([4]; bafilomycin 0.60 mg/g of food): 9.4 ± 1 days; TL50 ([4]; bafilomycin 2.0 mg/g food): 4.0 ± 0.2 days; Mortality ([5]; bafilomycin 0.36 mg/g of food): no mortality; Mortality ([5]; bafilomycin 0.60 mg/g of food): no mortality; TL50 ([5]; bafilomycin 2.0 mg/g food, artificial diet over 14 days): 9.9 ± 0.5 days
